{"source": "paper PMC10174255", "about": "“Drug repurposing approach against chikungunya virus: an in vitro and in silico study” (Frontiers in Cellular and Infection Microbiology, 2023)", "key": {"CHIKV [1]": {"system": "CHIKV", "assay": "Antiviral assay (pre-, co-, posttreatment) with FFU readout", "conditions": "for mean log10 viral titer/ml: VC 8.194; for anti-CHIKV activity in primary screening: highest nontoxic concentration"}, "CHIKV [2]": {"system": "CHIKV", "assay": "Viral RNA copy number by quantitative RT-PCR", "conditions": "cotreatment"}, "MTT cytotoxicity assay": {"assay": "MTT cytotoxicity assay", "conditions": "African green monkey"}, "Vero CCL-81 cells": {"system": "Vero CCL-81 cells", "assay": "MTT cytotoxicity assay", "conditions": "Vero CCL-81, ≥90% cell viability"}, "CHIKV [3]": {"system": "CHIKV", "assay": "Viral attachment assay", "conditions": "1.56 µM and 0.78 µM, at 4°C and 37°C"}, "CHIKV [4]": {"system": "CHIKV", "assay": "Viral entry assay", "conditions": "1.56 µM"}}}
{"smiles": "C[C@H](N[C@@H](CCc1ccccc1)C(=O)O)C(=O)N1CCC[C@H]1C(=O)O", "note": "[Enalaprilat]", "values": [{"measurement": "anti chikungunya activity", "setting": "CHIKV [1]; Vero CCL-81, any treatment condition", "result": "exhibit anti chikungunya activity"}, {"measurement": "Selectivity Index (SI)", "setting": "CHIKV [1]; cotreatment", "result": 167.42}, {"measurement": "mean log10 viral titer/ml", "setting": "CHIKV [1]; cotreatment, 0.78 µM", "result": 7.297, "unit": "log10 FFU/ml"}, {"measurement": "mean log10 viral titer/ml", "setting": "CHIKV [1]; cotreatment, 1.56 µM", "result": 7.052, "unit": "log10 FFU/ml"}, {"measurement": "IC50", "setting": "CHIKV [1]; cotreatment, FFU, Vero CCL-81", "result": 0.496, "unit": "µM"}, {"measurement": "anti-CHIKV activity in primary screening", "setting": "CHIKV [1]; cotreatment, FFU", "result": "effective"}, {"measurement": "anti-CHIKV activity in primary screening", "setting": "CHIKV [1]; posttreatment, FFU", "result": "did not affect"}, {"measurement": "effect on viral RNA titer", "setting": "CHIKV [2]", "result": "No significant reduction"}, {"measurement": "CC50", "setting": "MTT cytotoxicity assay", "result": "83 ± 18.7", "unit": "µM"}, {"measurement": "The maximum nontoxic concentration used for primary screening of drugs against CHIKV", "setting": "Vero CCL-81 cells", "result": 1.56, "unit": "µM"}, {"measurement": "effect on virus attachment", "setting": "CHIKV [3]", "result": "shown to influence virus attachment"}, {"measurement": "effect on virus titer in virus entry assay", "setting": "CHIKV [4]", "result": "affects the virus titer"}]}
